Experimental data: US11225481B2 (Centre national de la recherche scientifique, priority 2015, dated 2022)

What was measured:
Jurkat cells = assay: Cell Titer-Glo cell viability (cytotoxicity experiments); format: cell-based; conditions: Homo sapiens, 72 h incubation at 37° C., read-out: EC50, Jurkat T cells viability
Experimental: The human leukemia cell line Jurkat (ATCC® TIB-152) was maintained in RPMI-1640 medium supplemented with 10% FBS at 37° C. and 5% CO2. Human osteosarcoma cell line (U2OS, ATCC® HTB-96™) was maintained in DMEM supplemented with 10% FBS at 37° C. and 5% CO2.
In antiproliferative assays, compounds were assayed for their growth inhibiting activity towards the described cancer cell lines using the Cell Titer-Glo Luminescent Cell Viability Assay as described by the manufacturer (Promega Corporation). Briefly, […] cells were plated onto 96 well-plates (white with clear bottom (3610, Corning Costar)) in 100 μL media per well immediately before assay. Compounds were added at different concentrations (ranging from 100 to 0.05 μM) to each well and cell cultures were incubated 37° C. during 72 h. Vehicle (DMSO) was used as control and all compounds were tested in constant percentage of DMSO (1%). After addition of 50 μL Cell Titer-GLO, Luminescence was measured using a Centro luminometer LB960 (Berthold). Dose-response curves were generated and effective dose 50 values (EC50) were calculated using non-linear regression analysis (Graph Pad Prism).

BRD3(BD1) = biological target: T1, BRD3(BD1) (Homo sapiens, UniProt Q15059); assay: HTRF bromodomain selectivity profile; format: binding; conditions: Table 3 selectivity profile
T1 construct: purchased BPS Bioscience
T1 sequence (Q15059 34-140 limits assumed): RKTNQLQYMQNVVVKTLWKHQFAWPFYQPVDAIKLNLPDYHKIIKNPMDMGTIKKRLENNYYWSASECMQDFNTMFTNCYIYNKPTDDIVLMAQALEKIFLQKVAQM
Experimental: (§1) Compounds were dispensed, with 200 nL per well (1% final DMSO), from a concentration stock of 1 mM in 100% DMSO and with serial DMSO dilutions, using a Mosquito Crystal pipetting robot platform (TTP labtech). […] All HTRF reagents were purchased from CisBio Bioassays and reconstituted according to the supplier protocols. For each assay 14.7 μL of mix 1 (protein+peptide) is added in the assay wells, containing previously dispensed inhibitors, according to the final concentration and buffer described in Table 4, using a Biomek NX MC pipetting robot (Beckman). Then, 5.1 μL of mix 2 (donnor+acceptor) is added. HTRF signals were measured, after a final incubation (overnight at room temperature), using a PHERAstar FS (BMG Labtech) with an excitation filter at 337 nm and fluorescence wavelength measurement at 620 and 665 nm, an integration delay of 60 μs and an integration time of 500 μs. Results were analyzed with a two-wavelengths signal ratio: […] Percentage of inhibition was calculated using the following equation: % inhibition=[(compound signal)−(min signal)]/[(max signal)−(min signal)]*100, where ‘max signal’ is the signal ratio with the compound vehicle alone (DMSO) and ‘min signal’ the signal ratio without peptide. For IC50 measurements, values were normalized and fitted with Prism (GraphPad software) using the following equation: […] Selectivity profiles of bromodomain inhibitors were performed as described in HTRF screen section. […] HTRF detection reagents (EPIgeneous™ Binding Domain kits) were purchased from Cisbio Bioassays and used according to supplier's protocol. GST tagged bromodomain proteins were purchased from BPS Bioscience and histone peptide from Anaspec. [table]

BRD3(BD2) = biological target: T2, BRD3(BD2) (Homo sapiens, UniProt Q15059); assay: HTRF bromodomain selectivity profile; format: binding; conditions: Table 3 selectivity profile
T2 construct: purchased BPS Bioscience
T2 sequence (Q15059 306-415 limits assumed): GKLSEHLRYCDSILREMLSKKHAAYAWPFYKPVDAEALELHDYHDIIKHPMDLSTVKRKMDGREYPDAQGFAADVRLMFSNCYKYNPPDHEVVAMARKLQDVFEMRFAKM
Experimental: as §1

BRD4(BD1) = biological target: T3, BRD4(BD1) (Homo sapiens, UniProt O60885); assay: Isothermal Titration Calorimetry; format: binding
T3 construct: a BRD4(BD1) synthetic gene that includes a TEV cleavage site was purchased from LifeTechnology; made in house
Text: For Isothermal Titration Calorimetry (ITC) and crystallogenesis, BRD4(BD1) was produced and purified using a histidine tag affinity chromatography as described by Filipakopoulos et al.9 For these experiments, a pNIC28-BSA4 expression vector containing BRD4(BD1) and a Tobacco Etch Virus (TEV) protease cleavage site have kindly been provided by Stefan Knapp laboratory from the SGC at the University of Oxford. After size exclusion chromatography, the fractions presenting pure BRD4(BD1) after TEV cleavage of the histidine tag were pooled and concentrated to 25 mg/mL for crystallogenesis. For ITC assays, the protein was concentrated up to at 6 mg/mL and the DTT was removed using a buffer exchange column (PD10 from GE healthcare) equilibrated with 10 mM HEPES pH=7.5, 150 mM NaCl. For Homogeneous Time Resolved Fluorimetry (HTRF) experiments, a BRD4(BD1) synthetic gene that includes a TEV cleavage site was purchased from LifeTechnology in a pDONR transport vector before cloning into a pDESTTM15 expression vector for GST affinity purification. Protein production and purification was carried out using similar protocols and buffers as used for the His-BRD4(BD1) system. Purification was carried on GST affinity resin (Thermo Scientific) and reduced glutathione was used for protein release. GST-BRD4(BD1) was further purified by size exclusion chromatography on a Superdex 16/60 Hiload column (GE Healthcare) using 20 mM TRIS pH=8.0, 150 mM NaCl Buffer.
ITC was used to evaluate the thermodynamics parameters of the binding between BRD4(BD1) and the selected compounds, using ITC conditions previously described by Filippakopoulos et al.8 Purified BRD4(BD1) was extensively dialyzed in the ITC buffer containing 10 mM Hepes pH=7.5 and 150 mM NaCl. Compounds were diluted directly in the last protein dialysate prior to experiments. Titrations were carried out on a MicroCal ITC200 microcalorimeter (GE Healthcare, Piscataway, N.J.). Each experiment was designed using a titrant concentration (protein in the syringe) set 10 to 15 times the analyte concentration (compound in the cell generally between 10 and 35 μM) and using 13 injections at 35° C. A first small injection (generally 0.2 μL) was included in the titration protocol in order to remove air bubbles trapped in the syringe prior titration. Raw data were scaled after setting the zero to the titration saturation heat value. Integrated raw ITC data were fitted to a one site non-linear least squares fit model using the MicroCal Origin plugin as implemented in Origin 7 (Origin Lab). Finally, ΔG and TΔS values were calculated from the fitted ΔH and KA values using the equations ΔG=−R.T. ln KA and ΔG=ΔH−TΔS.

BET bromodomains = assay: Selectivity profile across BET bromodomains (HTRF); format: binding
Experimental: Selectivity profiles of bromodomain inhibitors were performed as described in HTRF screen section. […] HTRF detection reagents (EPIgeneous™ Binding Domain kits) were purchased from Cisbio Bioassays and used according to supplier's protocol. GST tagged bromodomain proteins were purchased from BPS Bioscience and histone peptide from Anaspec.

- IC50 (BRD3(BD1)): 62 ± 7.8 µM
- IC50 (BRD3(BD2)): > 100 µM
- IC50 (μM) BRD3(BD2) (BRD3(BD2)): no detectable inhibition
- entropy term −TΔS (BRD4(BD1); ITC, BRD4(BD1)): -7.1 kcal/mol
- Kd (BRD4(BD1); Isothermal Titration Calorimetry): 1.4 µM
- fold lower IC50 towards BRD4(BD1) as compared to its relatives BD1 (BET bromodomains; HTRF): 10 fold
Structure (SMILES): CCCCc1c(C)nc2nc(SCc3nc4c(c(=O)[nH]c(=O)n4CCCC)n3CC)nn2c1C [Compound 26b, 3-Butyl-8-(6-butyl-5,7-dimethyl-[1,2,4]triazolo[1,5-a]pyrimidin-2-ylsulfanylmethyl)-7-ethyl-3,7-dihydro-purine-2,6-dione]
- EC50 (Jurkat cells): 27 µM
- selectivity profile among BET bromodomains (BET bromodomains; in words): selective towards BRD4(BD1)
